# Patent US7355004B2, “Protein lipase inhibitor for flour and dough” (Danisco A/S, priority 2002, dated 2008)
# How the values were obtained:
# [1] = system: commercial lipase #1646; assay: p-Nitrophenol-acetate assay, determination of Km for another commercial lipase (#1646); format: biochemical; settings: pH 6.5, 50 mM phosphate buffer, 30° C., 405 nm; substrate 0.1 to 0.75 mg/ml; fit to non-competitive kinetics not accepted
# Protocol: (§1) Lipase activity was determined colorimetrically using p-nitrophenyl acetate as a substrate. In a microtiter plate was added 10 μl of sample or blank then 250 μl of substrate was added (0.5 mg p-nitrophenyl acetate/ml of 50 mM phosphate buffer, pH 6.5). The microtiterplate was incubated for 5 min. at 30° C. and the absorbance at 405 nm was then read in a microplate reader.
# Kinetic data were fitted to v=VmaxS/(Km+S) where Vmax is maximum velocity, S is substrate concentration, and Km is the concentration giving half maximal rate (Michaelis constant), using the EZ-FIT curve-fitting microcomputer program [Perrella, (1988) EZ-FIT: A practical curve-fitting microcomputer program for the analysis of enzyme kinetic data on IBM-PC compatible computers. Anal. Biochem. 174: 437-447]. To determine Ki the data were fitted to the formulas for non-competitive, competitive, un-competitive and the model showing the best fit (non-competitive) were used to determine Ki. The program uses the Nelder-Mead simplex optimization of initial guesses followed by Marquardt nonlinear regression algorithm for least squares optimization. Run's statistic is used to determine if the fitted curve goes through the data points or whether a systematic departure from the curve exists. The fitted parameter values and standard error are tested for significance by the Student t test.
# [2] = system: purified Lipase 3 from Aspergillus niger; assay: p-Nitrophenol-acetate assay, determination of Km for purified Lipase 3; format: biochemical
# Protocol: as §1
# A 60 ml sample of Grindlipase (Danisco A/S) a ferment of Aspergillus niger, pH 5.5 was first filtered through GF/B filter and then through 0.45 μm filter. The filtered sample was then desalted on a Superdex G25 SP column (430 ml, 22×5 cm) equilibrated in 20 mM triethanolamin, pH 7.3. Flow 5 ml/min. The total volume after desalting was 150 ml.
# The desalted sample was applied to a Source Q30 anion exchange column (100 ml, 5×5 cm) equilibrated in 20 mM triethanolamine, pH 7.3. The column was washed with equilibration buffer until a stable baseline was obtained. Lipase activity was then eluted with a 420 ml linear gradient from 0 to 0.35 M NaCl in equilibration buffer, flow […]. Fractions of 10 ml were collected. […]
# To the pool from anion exchange was added ammonium sulfate to 1 M and the sample was applied to a Source Phenyl HIC column (20 ml, 10 x 2 cm) equilibrated in 20 mM sodium-acetate (pH 5.5), 1M (NH4)2SO4. […] Fractions 33-41 were analyzed by SDS-PAGE and fraction 40 and 41 contained pure lipase. […]
smiles,measurement,setting,value
CC(=O)Oc1ccc([N+](=O)[O-])cc1 [p-nitrophenyl acetate],Km for p-nitrophenyl acetate,[1],2.0 ± 0.6 mg/mL
same,Km for p-nitrophenyl acetate,"[2]; pH 6.5, 50 mM phosphate buffer, 30° C., 405 nm, four levels of lipase inhibitor, fit to non-competitive model",0.67 ± 0.04 mg/mL
same,Km for lipase with respect to p-nitrophenyl acetate (in words),[2]; under the conditions in the assay,higher than the maximum solubility for p-nitrophenyl acetate
